# Test results: the SangsterLogP compilation
row,SMILES,logP
1,NCCCCCOc1cccc2ccccc12,1.59
2,COC(=O)NC1=NCC(c2cccc(Cl)c2)N1 (stereo not given),1.9
3,COC(=O)NC1=NCC(c2ccc3ccccc3c2)N1 (stereo not given),2.54
4,CN(C)CCOc1cccc2ccccc12,2.12
5,COC(=O)NC1=NCC(c2ccccc2Br)N1 (stereo not given),1.85
6,COC(=O)NC1=NCC(c2ccc(C(F)(F)F)cc2)N1 (stereo not given),2.25
7,NCCCCCCCCOc1cccc2ccccc12,3.14
8,CCc1cc2n(c1C(=O)c1ccc(F)cc1)CCC2C(=O)O (stereo not given),3.63
9,COC(=O)NC1=NCC(c2ccc(C=O)cc2)N1C (stereo not given),0.74
10,Cc1cc2n(c1C(=O)c1ccc(Cl)cc1)CCC2C(=O)O (stereo not given),3.6
11,NCCCCCCOc1cccc2ccccc12,2.06
12,COC(=O)NC1=NCC(c2ccc(F)cc2)N1 (stereo not given),1.49
13,COC(=O)NC1=NCC(c2ccccc2SC)N1C (stereo not given),2.08
14,NCCCCOc1cccc2ccccc12,1.25
15,Cc1cc2n(c1C(=O)c1ccccc1)CCC2C(=O)O (stereo not given),2.85
16,COC(=O)NC1=NCC(c2ccc(C(=O)OC)cc2)N1C (stereo not given),1.38

row,SMILES,logP
1,CCc1cc2n(c1C(=O)c1ccccc1)CCC2C(=O)O (stereo not given),3.31
2,COC(=O)NC1=NCC(c2ccc3c(c2)OCO3)N1 (stereo not given),1.21
3,NCCCOc1cccc2ccccc12,1.04
4,COC(=O)NC1=NCC(c2ccccc2Cl)N1C (stereo not given),2.08
5,COC(=O)NC1=NCC(c2ccc(CO)cc2)N1C (stereo not given),0.28
6,CN(C)CCCOc1cccc2ccccc12,1.99
7,COC(=O)NC1=NCC(c2cccc(F)c2)N1 (stereo not given),1.41
8,COC(=O)NC1=NCC(c2ccccc2)N1 (stereo not given),1.55
9,NCCOc1cccc2ccccc12,1.15
10,COC(=O)NC1=NCC(c2cc(Br)ccc2Br)N1C (stereo not given),2.77
11,CN(C)CCCCOc1cccc2ccccc12,2.05
12,COC(=O)NC1=NCC(c2ccc(C(C)C)cc2)N1 (stereo not given),2.6
13,Cc1ccc(C(=O)c2c(C)cc3n2CCC3C(=O)O)cc1 (stereo not given),3.33
14,O=c1c2ncn(COCCO)c2nc2[nH]c(-c3ccc4ccccc4c3)cn12,2.09
15,COc1ccc(C(=O)c2c(C)cc3n2CCC3C(=O)O)cc1 (stereo not given),2.91

# The remaining lines, values ahead:
row,logP,SMILES
1,2.1,COC(=O)NC1=NCC(c2cccc(Cl)c2)N1C (stereo not given)
2,1.9,CCOC(=O)NC1=NCC(c2ccc(F)cc2)N1C (stereo not given)
3,0.84,CCOC(=O)NC1=NCC(c2ccc(CO)cc2)N1C (stereo not given)
4,1.53,COC(=O)NC1=NCC(c2ccccc2F)N1C (stereo not given)
5,1.39,COC(=O)NC1=NCC(c2cccc(OC)c2)N1C (stereo not given)
6,1.9,CCOC(=O)NC1=NCC(c2ccccc2)N1C (stereo not given)
7,2.45,CCOC(=O)NC1=NCC(c2cccc(Cl)c2)N1C (stereo not given)
8,1.84,CCOC(=O)NC1=NCC(c2cccc(F)c2)N1C (stereo not given)
9,1.85,COC(=O)NC1=NCC(c2cccc(C)c2)N1C (stereo not given)
10,2.4,CCOC(=O)NC1=NCC(c2ccccc2Cl)N1C (stereo not given)
11,2.57,CCOC(=O)NC1=NCC(c2cccc(C)c2C)N1C (stereo not given)
12,1.85,COC(=O)NC1=NCC(c2ccccc2C)N1C (stereo not given)
13,2.17,COC(=O)NC1=NCC(c2ccc(Cl)cc2)N1C (stereo not given)
14,1.57,COC(=O)NC1=NCC(c2ccccc2)N1C (stereo not given)
